From PubChem BioAssay AID248 (DTP/NCI, 2004) come the findings set out here.

“And” between values parts separate entries of the source, which are not always exact repeats. Identical values can stand only once. Inconclusive results and toxic doses are left out.

The test system of the experiment is L1210 leukemia ip in BDF1 mice, survival T/C. Nature of the experiment: NCI In Vivo Anticancer Drug Screen. Data for tumor model L1210 Leukemia (intraperitoneal) in B6D2F1 (BDF1) mice. Conditions: higher = longer survival. In a few lines: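 Tumor cells were implanted, animals were treated, and survival was followed. The result divides the treated measurement by the vehicle-control measurement.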

Setting [1] is: endpoint: mean survival time, dose: 100.0 mg/kg/injection, schedule: Q04DX003 (ip), vehicle: Klucel (hydroxypropylcellulose) (HPC).
The mark [2] stands for this setting: endpoint: mean survival time, dose: 200.0 mg/kg/injection, schedule: Q04DX003 (ip), vehicle: Klucel (hydroxypropylcellulose) (HPC).
The mark [3] stands for this setting: endpoint: mean survival time, dose: 400.0 mg/kg/injection, schedule: Q04DX003 (ip), vehicle: Klucel (hydroxypropylcellulose) (HPC).
The mark [4] stands for this setting: endpoint: mean survival time, dose: 100.0 mg/kg/injection, schedule: Q01DX009 (ip), vehicle: Klucel (hydroxypropylcellulose) (HPC).
[5] abbreviates: endpoint: mean survival time, dose: 200.0 mg/kg/injection, schedule: Q01DX009 (ip), vehicle: Klucel (hydroxypropylcellulose) (HPC).
Setting [6] is: endpoint: mean survival time, dose: 400.0 mg/kg/injection, schedule: Q01DX009 (ip), vehicle: Klucel (hydroxypropylcellulose) (HPC).
[7] abbreviates: endpoint: mean survival time, dose: 100.0 mg/kg/injection, schedule: Q01DX009 (ip), vehicle: saline.
The mark [8] stands for this setting: endpoint: mean survival time, dose: 100.0 mg/kg/injection, schedule: Q04DX003 (ip), vehicle: saline.
The mark [9] stands for this setting: endpoint: mean survival time, dose: 200.0 mg/kg/injection, schedule: Q01DX009 (ip), vehicle: saline.
Where [10] appears, read: endpoint: mean survival time, dose: 200.0 mg/kg/injection, schedule: Q04DX003 (ip), vehicle: saline.
[11] abbreviates: endpoint: mean survival time, dose: 400.0 mg/kg/injection, schedule: Q01DX009 (ip), vehicle: saline.
Where [12] appears, read: endpoint: mean survival time, dose: 400.0 mg/kg/injection, schedule: Q04DX003 (ip), vehicle: saline.
Where [13] appears, read: endpoint: mean survival time, dose: 50.0 mg/kg/injection, schedule: Q01DX009 (ip), vehicle: saline.

`c1ccc(CCNc2ncnc3[nH]ncc23)cc1`: the T/C is 97 % of control (endpoint: mean survival time, dose: 12.0 mg/kg/injection, schedule: Q01DX015 (ip), vehicle: carboxymethylcellulose (CMC)); 97 % of control (endpoint: mean survival time, dose: 25.0 mg/kg/injection, schedule: Q01DX015 (ip), vehicle: carboxymethylcellulose (CMC)); 95 % of control (endpoint: mean survival time, dose: 50.0 mg/kg/injection, schedule: Q01DX015 (ip), vehicle: carboxymethylcellulose (CMC)).

As for `NC(=O)N/N=C\c1ccco1`, the T/C by setting is: (endpoint: mean survival time, dose: 25.0 mg/kg/injection, schedule: Q04DX003 (ip), vehicle: saline with Tween-80) 106 % of control; (endpoint: mean survival time, dose: 50.0 mg/kg/injection, schedule: Q04DX003 (ip), vehicle: saline with Tween-80) 100 % of control; under setting [1], 106 % of control; (endpoint: mean survival time, dose: 100.0 mg/kg/injection, schedule: Q04DX003 (ip), vehicle: saline with Tween-80) 94 % of control; under setting [2], 102 % of control; under setting [3], 98 % of control.

On to `Cc1ccc(S(=O)(=O)NC(CC(C)C)C(=O)O)cc1` (centres undefined), for which the T/C by setting is: (endpoint: mean survival time, dose: 100.0 mg/kg/injection, schedule: Q01DX001 (ip), vehicle: other) 101 % of control; (endpoint: mean survival time, dose: 200.0 mg/kg/injection, schedule: Q01DX001 (ip), vehicle: other) 96 % of control; (endpoint: mean survival time, dose: 400.0 mg/kg/injection, schedule: Q01DX001 (ip), vehicle: other) 98 % of control.

As for `CCCCCCCC(=O)CCC`, the T/C by setting is: under setting [4], 108 % of control; under setting [1], 98 % of control; under setting [5], 104 % of control; under setting [2], 89 % of control; under setting [6], 102 % of control; under setting [3], 89 % of control.

For the compound `CCOC(=O)C(C(=O)OCC)c1cc(Cl)nnc1Cl`, the T/C (endpoint: mean survival time, dose: 100.0 mg/kg/injection, schedule: Q04DX002 (ip), vehicle: saline) is 91 % of control and the T/C (endpoint: mean survival time, dose: 200.0 mg/kg/injection, schedule: Q04DX002 (ip), vehicle: saline) was 91 % of control.

In the case of `CSc1nc2ncncc2c(=O)[nH]1`, the T/C is 96 % of control (endpoint: mean survival time, dose: 100.0 mg/kg/injection, schedule: Q01DX001 (ip), vehicle: Klucel (hydroxypropylcellulose) (HPC)); 98 % of control under setting [4]; 100 % of control (endpoint: mean survival time, dose: 200.0 mg/kg/injection, schedule: Q01DX001 (ip), vehicle: Klucel (hydroxypropylcellulose) (HPC)); 102 % of control under setting [5]; 101 % of control (endpoint: mean survival time, dose: 400.0 mg/kg/injection, schedule: Q01DX001 (ip), vehicle: Klucel (hydroxypropylcellulose) (HPC)); 95 % of control under setting [6].

For the compound `CC(=O)OCC1OC(Sc2ccc([N+](=O)[O-])cc2[N+](=O)[O-])C(OC(C)=O)C(OC(C)=O)C1OC(C)=O` (centres undefined), the T/C by setting is: (endpoint: mean survival time, dose: 100.0 mg/kg/injection, schedule: Q01DX001 (ip), vehicle: saline with Tween-80) 96 % of control; (endpoint: mean survival time, dose: 200.0 mg/kg/injection, schedule: Q01DX001 (ip), vehicle: saline with Tween-80) 101 % of control; (endpoint: mean survival time, dose: 400.0 mg/kg/injection, schedule: Q01DX001 (ip), vehicle: saline with Tween-80) 93 % of control.

With `CCOc1ccc(NC(=S)NC(=O)c2cccc3ccccc23)cc1`, the T/C is, setting by setting: under setting [7], 96 % of control; under setting [8], 92 % of control; under setting [9], 96 % of control; under setting [10], 100 % of control; under setting [11], 95 % of control; under setting [12], 92 % of control.

For `N/N=C\C=N\N`, the T/C was 107 % of control (endpoint: mean survival time, dose: 15.0 mg/kg/injection, schedule: Q01DX Z (ip), vehicle: saline); 107 % of control (endpoint: mean survival time, dose: 30.0 mg/kg/injection, schedule: Q01DX Z (ip), vehicle: saline); 107 % of control (endpoint: mean survival time, dose: 60.0 mg/kg/injection, schedule: Q01DX Z (ip), vehicle: saline).

In the case of `O=[N+]([O-])c1ccc(C(F)(F)F)cc1`, the T/C is, setting by setting: (endpoint: mean survival time, dose: 50.0 mg/kg/injection, schedule: Q01DX009 (ip), vehicle: other) 104 % of control; (endpoint: mean survival time, dose: 100.0 mg/kg/injection, schedule: Q01DX009 (ip), vehicle: other) 101 % of control.

As for `Cc1cc(N(CCOS(C)(=O)=O)CCOS(C)(=O)=O)ccc1C=Nc1ccc(C(=O)O)c(O)c1`, the T/C is, setting by setting: (endpoint: mean survival time, dose: 4.0 mg/kg/injection, schedule: Q01DX009 (ip), vehicle: saline with Tween-80) 111 % of control; (endpoint: mean survival time, dose: 6.0 mg/kg/injection, schedule: Q01DX009 (ip), vehicle: saline with Tween-80) 119 % of control.

`O=C(O)c1nc2nc(Cl)c(Cl)nc2[nH]1`: the T/C by setting is: under setting [13], 98 % of control; under setting [7], 101 % of control and 90 % of control; under setting [8], 100 % of control; under setting [9], 93 % of control and 96 % of control; under setting [10], 103 % of control; (endpoint: mean survival time, dose: 300.0 mg/kg/injection, schedule: Q01DX009 (ip), vehicle: saline) 102 % of control. Moreover, the T/C under setting [11] was 91 % of control.

`CCC(=O)CC1CCCC(CC(=O)CC)N1C` (centres undefined): the T/C runs as follows: (endpoint: mean survival time, dose: 9.5 mg/kg/injection, schedule: Q01DX001 (ip), vehicle: saline) 96 % of control; (endpoint: mean survival time, dose: 19.0 mg/kg/injection, schedule: Q01DX001 (ip), vehicle: saline) 104 % of control; (endpoint: mean survival time, dose: 38.0 mg/kg/injection, schedule: Q01DX001 (ip), vehicle: saline) 102 % of control.

Regarding `Cc1cc(N)no1`, the T/C was 100 % of control under setting [7]; 108 % of control under setting [8]; 104 % of control under setting [9]; 106 % of control under setting [10]; 104 % of control under setting [11]; 108 % of control under setting [12].

Turning to `COC(=O)c1ccccc1N(C)C(=O)c1ccccc1`, the T/C runs as follows: under setting [1], 102 % of control; under setting [2], 107 % of control; under setting [3], 109 % of control.

Consider `CCCCCCCCC(C)C`, for which the T/C (endpoint: mean survival time, dose: 100.0 mg/kg/injection, schedule: Q04DX002 (ip), vehicle: saline with Tween-80) is 100 % of control and the T/C (endpoint: mean survival time, dose: 200.0 mg/kg/injection, schedule: Q04DX002 (ip), vehicle: saline with Tween-80) is 97 % of control.

`Cc1cc2nc3c(nc2cc1C)-c1ccccc1C3=O`: the T/C by setting is: (endpoint: mean survival time, dose: 100.0 mg/kg/injection, schedule: Q01DX009 (ip), vehicle: saline with Tween-80) 117 % of control; (endpoint: mean survival time, dose: 200.0 mg/kg/injection, schedule: Q01DX009 (ip), vehicle: saline with Tween-80) 101 % of control; (endpoint: mean survival time, dose: 400.0 mg/kg/injection, schedule: Q01DX009 (ip), vehicle: saline with Tween-80) 97 % of control.

`Cc1ccccc1C(O)C(Cl)(Cl)Cl` (centres undefined): the T/C by setting is: (endpoint: median survival time, dose: 50.0 mg/kg/injection, schedule: Q04DX003 (ip), vehicle: Klucel (hydroxypropylcellulose) (HPC)) 118 % of control; (endpoint: median survival time, dose: 200.0 mg/kg/injection, schedule: Q04DX003 (ip), vehicle: Klucel (hydroxypropylcellulose) (HPC)) 157 % of control; (endpoint: median survival time, dose: 400.0 mg/kg/injection, schedule: Q04DX003 (ip), vehicle: Klucel (hydroxypropylcellulose) (HPC)) 204 % of control.

With `COc1ccc2c(c1)CCC1C2CCC2(C)C(=O)C(n3cnc4c(=S)nc[nH]c43)CC12` (centres undefined), the T/C was 106 % of control (endpoint: mean survival time, dose: 100.0 mg/kg/injection, schedule: Q01DX001 (sc), vehicle: steriod suspending solution); 110 % of control (endpoint: mean survival time, dose: 200.0 mg/kg/injection, schedule: Q01DX001 (sc), vehicle: steriod suspending solution); 110 % of control (endpoint: mean survival time, dose: 400.0 mg/kg/injection, schedule: Q01DX001 (sc), vehicle: steriod suspending solution).

Regarding `O/N=C/Cc1ccccc1`, the T/C (endpoint: mean survival time, dose: 100.0 mg/kg/injection, schedule: Q04DX002 (ip), vehicle: DMSO) is 103 % of control and the T/C (endpoint: mean survival time, dose: 200.0 mg/kg/injection, schedule: Q04DX002 (ip), vehicle: DMSO) was 123 % of control.

`O=C(Nc1cccc(Cl)c1)c1cc(N=Nc2ccc([N+](=O)[O-])cc2Cl)ccc1O`: the T/C reads like this: under setting [1], 103 % of control; under setting [2], 104 % of control.

With `CC(=O)N(NC(C)C)C(C)C`, the T/C is 104 % of control (endpoint: mean survival time, dose: 6.25 mg/kg/injection, schedule: Q01DX009 (ip), vehicle: saline); 93 % of control (endpoint: mean survival time, dose: 12.5 mg/kg/injection, schedule: Q01DX009 (ip), vehicle: saline); 94 % of control (endpoint: mean survival time, dose: 25.0 mg/kg/injection, schedule: Q01DX009 (ip), vehicle: saline); 98 % of control (endpoint: mean survival time, dose: 25.0 mg/kg/injection, schedule: Q04DX003 (ip), vehicle: saline); 100 % of control under setting [13]; 98 % of control (endpoint: mean survival time, dose: 50.0 mg/kg/injection, schedule: Q04DX003 (ip), vehicle: saline). Further, the T/C is 104 % of control under setting [7] and 93 % of control under setting [8].
